Data set [1] concerns HT1376, HTB-9, N87 and OVCAR-3 cell lines. The experiment in a line: Cell viability in urinary bladder, gastric and ovarian cancer cell lines. The format is cell-based. The settings on record: HT1376, HTB-9, N87, OVCAR-3; FIGS. 9-10. The procedure:
(§1) MIA PaCa-2, […], LS180, HT1376, HT29, H358, H1299, OVCAR-3, HTB-9 and Panc 10.05 cells were obtained from ATCC (Rockville, MD). MiaPaCa cells were cultured in DMEM medium supplemented with 10% FBS. H358, H1299, HTB-9, N87 and Panc 10.05 cells were cultured in DMEM/10% FBS; LS180 and HT1376 in EMEM/10% FBS; HT29 cells in McCoy5A/10% FBS; OVCAR-3 cells were incubated in RPMI/20% FBS. All cells were maintained at 37 degrees C. in an atmosphere containing 5% CO^2.
(§2) The day before transfection, cells were seeded in a 384-well plate at an optimal density of between 300 and 800 cells/well. […]
(§3) Ninety-six hours following the addition of GEM or transfection mixtures, the number of viable cells was determined with CellTiter-Glo®-2.0 reagent (Promega, Madison, WI) by measuring luminescent signal using a Cytation 5 plate reader (BioTek Inc, Winooski, VT). […]
Using the same or similar experimental condition as are described above in Example 1, the effects of PGN7 (SEQ. ID No. 9-10), Wee1 (SEQ. ID No. 13), BCLxL #5 (SEQ. ID No. 14) or the PGN7+Wee1, or PGN+BCLxL combinations were evaluated and are shown in HT1376 (400 cells/well) and HTB-9 (800 cells/well) urinary bladder cancer cell lines, N87 (600 cells/well) gastric cancer cell line, and OVCAR-3 (800 cells/well) ovarian cancer line in FIGS. 11 (a)-(d). […]

Data set [2] relates to pancreatic, lung and colon cancer cell lines. The experiment in a line: Cell viability in pancreatic, lung and colon cancer cell lines. Format: cell-based. The settings on record: single siRNA against non-silencing control; pancreatic, lung, colon; FIG. 6. The procedure:
as §1
(§4) The day before transfection, cells were seeded in a 384-well plate at an optimal density of between 300 and 800 cells/well. The next day, ten 3-fold serial dilutions of single, modified-backbone siRNAs or PGN6/PGN7 siRNA and Gemcitabine (GEM) mixed with siRNAs: Wee1 #7, KRAS #1, MCL1 #3 or DM2-P47 siRNAs at 1:1 ratio were prepared and combined with diluted Lipofectamine RNAiMAX (Life Technologies, Carlsbad, CA). Within 20 minutes, 10 μl of the transfection mixtures were added to the cells in a 40 μL medium. The final concentrations of siRNAs or Gemcitabine in the wells ranged from 100 nM to 0.002 nM.
(§5) Ninety-six hours following the addition of GEM or transfection mixtures, the number of viable cells was determined with CellTiter-Glo®-2.0 reagent (Promega, Madison, WI) by measuring luminescent signal using a Cytation 5 plate reader (BioTek Inc, Winooski, VT). The treatment group (n=4) mean (±SD) was compared to those of non-treated controls and were reported as relative cell viability.
Using the same experimental conditions as are described above in Example 1, the efficacy on cell viability was evaluated for PGN6 (SEQ. ID Nos. 7-8), with and without lipofentamine (“lipo”) in three types of cancer cell lines. FIG. 3 (a)-(c) show the effects of PGN6, with and without lipo on cell viability at increasing siRNA levels in pancreatic cancer cell lines. FIG. 4 (a)-(b) similarly show the effects of these variants on cell viability in lung cancer cell lines; FIG. 5 (a)-(b) show the effects of these variants on cell viability in colon cancer cell lines. All data are shown as mean±SD. […]
Using the same experimental conditions as are described above in Example 1, the efficacy of STD1 (SEQ. ID Nos. 1-2), PGN6 (SEQ. ID Nos. 7-8) and PGN7 (SEQ. ID Nos. 9-10) were evaluated in three types of cancer cell lines. […]
Using the same experimental conditions as are described above in Example 1, the efficacy of PGN7 (SEQ. ID No. 9-10) alone and its combination with WEE1 #7 (SEQ. ID No. 13) was evaluated in three types of cancer cell lines. […]
Using the same experimental conditions as are described above in Example 1, the efficacy of PGN7 (SEQ. ID No. 9-10) and the combination of BCLxL #5 (SEQ. ID No. 14) and PGN7 was evaluated in three types of cancer cell lines. […]

For the next data set, the system named is MDA-MB231 cells. Description: Cell viability in triple negative breast cancer cell line MDA-MB231. Format: cell-based. The settings on record: MDA-MB231, 400 cells per well; FIG. 13(a). The procedure:
as §1, §2, §3
(§6) Using the same or similar experimental condition as are described above in Example 1, the effects of (i) PGN7 (SEQ. ID No. 9-10) plus a non-signaling oligonucleotide (“NS”), (ii) BCLxL #5 (SEQ. ID No. 14)+NS, and (iii) PGN7 and BCLxL #5 in combination were evaluated and are shown in triple negative breast cancer (MDA-MB231) and ovarian cancer (OVCAR3) cell lines in FIGS. 13 (a)-(b). […]

For the next data set, the system named is MiaPaCa-2 cells. The experiment in a line: Cell viability (CellTiter-Glo) in MiaPaCa-2 pancreatic cancer cells after transfection. The format is cell-based, human. The settings on record: in combination with lipofectamine; 96 h; n=4 (FIG. 2); read-out: IC50, MiaPaCa-2 cell viability. On the procedure:
as §1, §4, §5

The test system of the next data set is OVCAR3 cells. The experiment in a line: Cell viability in ovarian cancer cell line OVCAR3. The settings on record: OVCAR3, 800 cells per well; FIG. 13(b). The format is cell-based. On the procedure: as §1, §2, §3, §6

In the case of “PGN7: modified siRNA-GEM RNAi agent (SEQ. ID No. 9-10): sense 5′-AAGAAAgAgau[GEM]uGuAu[GEM]AAu-3′; antisense 5′-AuUGAuACAGAuCuCuUuCuU[GEM][GEM]dTdT-3′ (sense AAGAAAGAGATCTGTATCAAT; antisense ATTGATACAGATCTCTTTCTTCCTT; GEM modifications; 2'-modified bases; dTdT overhang; modified_base 1 OTHER; 2'-O-methyl modified nucleotide; modified_base 2 OTHER; modified_base 3 OTHER; modified_base 4 OTHER; modified_base 5 OTHER; modified_base 6 OTHER; modified_base 7 OTHER; 2'-fluoro modified nucleotide; modified_b; 2'-O-me)”, in data set [1], the “efficacy on cell viability” value was “significant efficacy”. Besides, the “reduction of cell viability” value in data set [2] was “effective in reducing cell viability”. For the same substance, the IC50 – broadly, the point on the concentration scale where inhibition reaches its midpoint – came out at 1.1 nM in the data set with MDA-MB231 cells, 0.006 nM in the data set with MiaPaCa-2 cells and 0.5 nM in the data set on OVCAR3 cells.

Source of the values: US20250027086A1, “COMPOSITIONS AND METHODS FOR TREATMENT OF CANCERS USING MODIFIED siRNA-GEM AGENTS” (Sirnaomics, Inc., priority 2022, published 2025).
